Data: the SangsterLogP compilation

Experiment: method code SF, from DOI: 10.1002/jps.2600650919, PMID: 966149
Details: pH 7.4

logD	SMILES
2.78	CC(=O)SC1CC2=CC(=O)CCC2(C)C2CCC3(C)C(CCC34CCC(=O)O4)C12 (stereo not given)
2.54	CCOC(=O)C1CC2=CC(=O)CCC2(C)C2CCC3(C)C(C4CCC(=O)O4)CCC3C12 (stereo not given)
1.67	CC12CCC(=O)C=C1CC(C#N)C1C2CCC2(C)C1CCC21CCC(=O)O1 (stereo not given)
2.18	COC(=O)C1CC2=CC(=O)CCC2(C)C2CCC3(C)C(CCC34CCC(=O)O4)C12 (stereo not given)
3.08	CC12CCC(=O)C=C1C1CC1C1C2CCC2(C)C1CCC21CCC(=O)O1 (stereo not given)
2.82	CC(C)OC(=O)C1CC2=CC(=O)CCC2(C)C2CCC3(C)C(C4CCC(=O)O4)CCC3C12 (stereo not given)

The remaining lines, values behind:

SMILES	logD
CC12CCC(=O)C=C1CCC1C3CCC4(CCC(=O)O4)C3(C)CC(O)C12F (stereo not given)	2.4
CC12CCC(=O)C=C1C=CC1C2CCC2(C)C1CCC21CCC(=O)O1 (stereo not given)	2.68
CC12CCC(=O)C=C1C1(CC1)CC1C2CCC2(C)C1CCC21CCC(=O)O1 (stereo not given)	3.15
CC12CCC(=O)C=C1CCC1C3CCC4(CCC(=O)O4)C3(C)CC3OC312 (stereo not given)	1.96
